Laboratory results from patent US20080281104A1, “Membrane-Anchoring Fluorescent Probe” (THE UNIVERSITY OF TOKYO, priority 2005, published 2008).

Experiments:
HeLa cells = experiment: Fluorescence intensity change of loaded cells on extracellular pH change; type: cell-based; conditions: extracellular fluid pH from 7.4 to 6.7 to 6.4, loaded cells, fluorescence microscope (FIG. 5)
Protocol: As a control experiment, a fluorescein ester derivative (fluorescein diacetate), which can penetrate cell membranes and undergo hydrolysis by cytoplasmic esterase to distribute fluorescein intracellularly, was loaded on the cells, then the cells were treated in the same manner.

HeLa cell membranes = experiment: Function as NO probe on cell membrane (NOC13 addition); type: cell-based; conditions: 7.5 μmol/L probe, PBS(+) pH 7.4, NOC13 100 μmol/L at 120 seconds and 1 mmol/L at 1,800 seconds, HeLa cells (FIG. 6)
Protocol: To 1 mL of an extracellular fluid (pH 7.4, PBS (+)) loaded with DAF-PIP-DPPE (7.5 μmol/L) was added NOC13 solution (500 μL) prepared before use.

[1] = Fluorescence time course of reaction with NO released from NOC13; conditions: 1.27 μmol/L in PBS(−), 37° C., NOC13 5, 50, 100, 500 μmol/L (FIG. 2)
Protocol: To a 1.27 μmol/L DAF-PIPA PBS(−) solution at 37° C. was added NOC13 as a sustained release-type NO releasing agent at concentrations of 5 μmol/L, 50 μmol/L, 100 μmol/L, and 500 μmol/L, respectively, and change in the reaction with NO over time was measured.

Question: Which “decrease in fluorescence intensity according to pH change of extracellular fluid” value (HeLa cells) does the source give for `CC(=O)Oc1ccc2c(c1)Oc1cc(OC(C)=O)ccc1C21OC(=O)c2ccccc21` [fluorescein diacetate] here?
Answer: The value was “no change in fluorescence intensity”.

Question: With `CCCCCCCCCCCCCCCC(=O)OC[C@H](COP(=O)(O)OCCNC(=O)C1CCN(C(=O)c2cc(N)c(N)cc2-c2c3ccc(=O)cc-3oc3cc(O)ccc23)CC1)OC(=O)CCCCCCCCCCCCCCC` [DAF-PIP-DPPE] as the compound, how does the “fluorescence intensity change on cell membranes after NOC13” value (HeLa cell membranes) read?
Answer: The value was “Marked increase in the fluorescence intensity”.

Question: With DAF-piperidinic Acid [DAF-PIPA] as the compound, how does the “change in fluorescence intensity on reaction with NO” value [1] read?
Answer: Its value is “became larger in a NO concentration-dependent manner”.
